Source: patent US8946154B2 (BCN Peptides, S.A., priority 2009, dated 2015)
Numbered stars: 1 amine (or outer) side, 2 acyl side, 3 side chain; on linkers, the order of the positions; unused ones are H or OH. Bridge positions count the residues as written; N and C are the ends. Square brackets hold non-standard residues; d marks the D form. Side chains are listed from the residue outwards. Peptide text beside a SMILES is read from it. * marks the point of attachment. Ethylenediamine = C(CN[*:2])N[*:1]; Hyp = O=C(O)[C@@H]1C[C@@H](O)CN1; Phg = N[C@H](C(=O)O)c1ccccc1; CO = O=C([*:1])[*:2]; Bn = c1ccc(C*)cc1

Columns and labels:
[1] = Stability in 90% human serum
sstr1 receptor = sstr1 receptor (Homo sapiens, UniProt P30872); conditions: literature, background; cited from earlier work
sstr2 receptor = sstr2 receptor (Homo sapiens, UniProt P30874); conditions: literature, background; cited from earlier work
sstr3 receptor = sstr3 receptor (Homo sapiens, UniProt P32745); conditions: literature, background; cited from earlier work
sstr4 receptor = sstr4 receptor (Homo sapiens, UniProt P31391); conditions: literature, background; cited from earlier work
sstr4 receptor, sequence (P31391 whole entry): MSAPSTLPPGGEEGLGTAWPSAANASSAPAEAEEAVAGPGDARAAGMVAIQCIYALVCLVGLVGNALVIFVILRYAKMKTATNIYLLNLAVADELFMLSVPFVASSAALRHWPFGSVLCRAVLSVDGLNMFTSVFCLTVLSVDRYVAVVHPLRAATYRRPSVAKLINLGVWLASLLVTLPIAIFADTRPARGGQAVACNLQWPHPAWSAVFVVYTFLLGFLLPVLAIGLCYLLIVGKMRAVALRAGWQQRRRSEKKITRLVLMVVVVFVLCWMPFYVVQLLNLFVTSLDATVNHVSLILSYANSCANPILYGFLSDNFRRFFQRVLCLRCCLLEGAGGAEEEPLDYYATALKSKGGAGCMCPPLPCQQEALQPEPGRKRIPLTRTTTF

sstr3 receptor, sequence (P32745 whole entry): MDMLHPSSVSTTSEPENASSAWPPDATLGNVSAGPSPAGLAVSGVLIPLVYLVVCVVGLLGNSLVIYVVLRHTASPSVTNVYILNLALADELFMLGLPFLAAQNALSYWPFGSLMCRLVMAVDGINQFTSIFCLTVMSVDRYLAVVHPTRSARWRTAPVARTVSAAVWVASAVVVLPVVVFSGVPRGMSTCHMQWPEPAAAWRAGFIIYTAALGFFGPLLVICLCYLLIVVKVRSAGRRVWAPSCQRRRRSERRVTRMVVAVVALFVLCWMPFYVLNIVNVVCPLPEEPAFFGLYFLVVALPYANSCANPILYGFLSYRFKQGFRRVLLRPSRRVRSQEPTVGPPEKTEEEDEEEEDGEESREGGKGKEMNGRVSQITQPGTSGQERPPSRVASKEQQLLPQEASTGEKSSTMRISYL
sstr2 receptor, sequence (P30874 whole entry): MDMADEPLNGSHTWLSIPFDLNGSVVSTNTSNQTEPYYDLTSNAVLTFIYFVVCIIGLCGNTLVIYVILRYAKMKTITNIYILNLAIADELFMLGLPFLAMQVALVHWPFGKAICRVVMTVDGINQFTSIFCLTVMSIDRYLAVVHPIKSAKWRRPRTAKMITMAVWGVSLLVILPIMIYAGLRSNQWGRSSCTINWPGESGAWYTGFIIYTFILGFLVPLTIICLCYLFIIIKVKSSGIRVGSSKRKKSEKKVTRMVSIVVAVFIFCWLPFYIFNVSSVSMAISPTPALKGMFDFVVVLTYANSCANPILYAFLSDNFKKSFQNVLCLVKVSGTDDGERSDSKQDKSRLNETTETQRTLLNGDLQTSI
sstr1 receptor, sequence (P30872 whole entry): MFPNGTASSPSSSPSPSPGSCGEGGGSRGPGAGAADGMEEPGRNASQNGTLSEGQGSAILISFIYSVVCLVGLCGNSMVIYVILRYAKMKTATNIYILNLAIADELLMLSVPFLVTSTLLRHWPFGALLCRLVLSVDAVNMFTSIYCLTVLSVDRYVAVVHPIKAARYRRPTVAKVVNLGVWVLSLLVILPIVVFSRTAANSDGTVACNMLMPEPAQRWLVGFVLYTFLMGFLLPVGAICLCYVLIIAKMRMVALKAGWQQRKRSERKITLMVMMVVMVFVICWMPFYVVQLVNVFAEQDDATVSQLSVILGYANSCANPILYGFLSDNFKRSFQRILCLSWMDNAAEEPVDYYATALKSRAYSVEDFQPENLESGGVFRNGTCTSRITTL

half-life [1] [h]	Structure (SMILES)	affinity for the sstr1 receptor (sstr1 receptor)	affinity for the sstr2 receptor (sstr2 receptor)	affinity for the sstr3 receptor (sstr3 receptor)	affinity for the sstr4 receptor (sstr4 receptor)
24.6	Cc1cc(C)c(C[C@@H]2NC(=O)[C@H](Cc3ccccc3)NC(=O)[C@H](CC(N)=O)NC(=O)[C@H](CCCCN)NC(=O)[C@@H](NC(=O)CNC(=O)[C@H](C)N)CSSC[C@@H](C(=O)O)NC(=O)[C@H](CO)NC(=O)[C@H]([C@@H](C)O)NC(=O)[C@H](Cc3ccccc3)NC(=O)[C@H]([C@@H](C)O)NC(=O)[C@H](CCCCN)NC(=O)[C@@H](Cc3c[nH]c4ccccc34)NC2=O)c(C)c1 [Compound 25]	–	–	–	–
93.3	Cc1cc(C)c(C[C@@H]2NC(=O)[C@H](CC(N)=O)NC(=O)[C@H](CCCCN)NC(=O)[C@@H](NC(=O)CNC(=O)[C@H](C)N)CSSC[C@@H](C(=O)O)NC(=O)[C@H](CO)NC(=O)[C@H]([C@@H](C)O)NC(=O)[C@H](Cc3c(C)cc(C)cc3C)NC(=O)[C@H]([C@@H](C)O)NC(=O)[C@H](CCCCN)NC(=O)[C@H](Cc3c[nH]c4ccccc34)NC(=O)[C@H](Cc3c(C)cc(C)cc3C)NC2=O)c(C)c1 [Compound 30]	–	–	–	–
41	Cc1cc(C)c(C[C@@H]2NC(=O)[C@H]([C@@H](C)O)NC(=O)[C@H](CCCCN)NC(=O)[C@@H](Cc3c[nH]c4ccccc34)NC(=O)[C@H](Cc3ccccc3)NC(=O)[C@H](Cc3ccccc3)NC(=O)[C@H](CC(N)=O)NC(=O)[C@H](CCCCN)NC(=O)[C@@H](NC(=O)CNC(=O)[C@H](C)N)CSSC[C@@H](C(=O)O)NC(=O)[C@H](CO)NC(=O)[C@H]([C@@H](C)O)NC2=O)c(C)c1 [Compound 26]	–	–	–	–
43.9	Cc1cc(C)c(C[C@@H]2NC(=O)[C@H](CC(N)=O)NC(=O)[C@H](CCCCN)NC(=O)[C@@H](NC(=O)CNC(=O)[C@H](C)N)CSSC[C@@H](C(=O)O)NC(=O)[C@H](CO)NC(=O)[C@H]([C@@H](C)O)NC(=O)[C@H](Cc3ccccc3)NC(=O)[C@H]([C@@H](C)O)NC(=O)[C@H](CCCCN)NC(=O)[C@H](Cc3c[nH]c4ccccc34)NC(=O)[C@H](Cc3c(C)cc(C)cc3C)NC2=O)c(C)c1 [Compound 27]	–	–	–	–
–	CC(C)[C@@H]1NC(=O)[C@H](CCCCN)NC(=O)[C@@H](Cc2c[nH]c3ccccc23)NC(=O)[C@H](Cc2ccc(O)cc2)NC(=O)[C@@H](NC(=O)[C@H](N)Cc2ccccc2)CSSC[C@@H](C(=O)N[C@@H](Cc2c[nH]c3ccccc23)C(N)=O)NC1=O [vapreotide] (H-[dF]CY[dW]KVCW-NH2; disulfide 2-7)	do not bind	high affinity	moderate-low affinity	do not bind
–	CC(C)[C@@H]1NC(=O)[C@H](CCCCN)NC(=O)[C@@H](Cc2c[nH]c3ccccc23)NC(=O)[C@H](Cc2ccc(O)cc2)NC(=O)[C@@H](NC(=O)[C@H](N)Cc2ccc3ccccc3c2)CSSC[C@@H](C(=O)N[C@H](C(N)=O)[C@@H](C)O)NC1=O [lanreotide]	do not bind	high affinity	moderate-low affinity	do not bind
–	C[C@@H](O)[C@@H]1NC(=O)[C@H](CCCCN)NC(=O)[C@@H](Cc2c[nH]c3ccccc23)NC(=O)[C@H](Cc2ccccc2)NC(=O)[C@@H](NC(=O)[C@H](N)Cc2ccccc2)CSSC[C@@H](C(=O)N[C@H](CO)[C@@H](C)O)NC1=O [octreotide]	do not bind	high affinity	moderate-low affinity	do not bind
–	NCCCC[C@@H]1NC(=O)[C@@H](Cc2c[nH]c3ccccc23)NC(=O)[C@H](c2ccccc2)NC(=O)[C@@H]2C[C@@H](OC(=O)NCCN)CN2C(=O)[C@H](Cc2ccccc2)NC(=O)[C@H](Cc2ccc(OCc3ccccc3)cc2)NC1=O [pasireotide] (cyclo([Hyp]([CO-Ethylenediamine])[Phg][dW]KY(Bn)F))	–	an order of magnitude lower	–	lost
26.2	Cc1cc(C)c(C[C@@H]2NC(=O)[C@H](CC(N)=O)NC(=O)[C@H](CCCCN)NC(=O)[C@@H](NC(=O)CNC(=O)[C@H](C)N)CSSC[C@@H](C(=O)O)NC(=O)[C@H](CO)NC(=O)[C@H]([C@@H](C)O)NC(=O)[C@H](Cc3ccccc3)NC(=O)[C@H]([C@@H](C)O)NC(=O)[C@H](CCCCN)NC(=O)[C@@H](Cc3c[nH]c4ccccc34)NC(=O)[C@H](Cc3ccccc3)NC2=O)c(C)c1 [Compound 24]	–	–	–	–
41.7	CCCCCCCCCCCCCCCC(=O)NCCCC[C@@H]1NC(=O)[C@@H](NC(=O)CNC(=O)[C@H](C)N)CSSC[C@@H](C(=O)O)NC(=O)[C@H](CO)NC(=O)[C@H]([C@@H](C)O)NC(=O)[C@H](Cc2ccccc2)NC(=O)[C@H]([C@@H](C)O)NC(=O)[C@H](CCCCN)NC(=O)[C@H](Cc2c[nH]c3ccccc23)NC(=O)[C@H](Cc2ccccc2)NC(=O)[C@H](Cc2ccccc2)NC(=O)[C@H](CC(N)=O)NC1=O [Compound 21]	–	–	–	–
